Measured values as given in patent EP3131902B1, “COMPOUNDS AS MODULATORS OF ROR GAMMA” (Boehringer Ingelheim International GmbH, priority 2014, dated 2015).

target: T1, RORγ (Homo sapiens, UniProt P51449); experiment: Reporter Gene Assay (RGA): nuclear receptor transactivation assay, inhibition of RORγ transactivation of a luciferase reporter in transiently transfected HEK 293 cells; format: cell-based; settings: not given
T1 construct: expressed in transfected cells; host or cells: HEK 293 cells, transiently transfected
T1 sequence (P51449 269-508 limits assumed): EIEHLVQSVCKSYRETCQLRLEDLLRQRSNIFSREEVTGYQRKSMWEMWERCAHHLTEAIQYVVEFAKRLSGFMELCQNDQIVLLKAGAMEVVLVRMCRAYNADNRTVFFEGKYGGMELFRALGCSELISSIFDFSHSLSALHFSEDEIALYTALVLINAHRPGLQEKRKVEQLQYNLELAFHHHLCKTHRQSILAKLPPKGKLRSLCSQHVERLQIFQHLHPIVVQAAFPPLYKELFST

Structure (SMILES) | IC50 [nM]
CCc1ncnc(C2CC2)c1-c1ncc2nc(NCc3ccc(S(C)(=O)=O)cc3)c(=O)n([C@H](C)CC)c2n1 [Example 191] | 86

same assay, conditions: read-out: RGA IC50

IC50 [nM] | Structure (SMILES)
270 | COc1ncnc(C2CC2)c1-c1ncc2nc(NCc3ccc(S(C)(=O)=O)cc3)c(=O)n([C@H]3CCC[C@@H]3OC)c2n1 [Example 230]
180 | Cc1ncnc(C2CC2)c1-c1ncc2nc(NCc3ccc(S(C)(=N)=O)cc3)c(=O)n([C@@H](C)C3CCC3)c2n1 (some centres unmarked) [Example 232]
155 | CCS(=O)(=O)c1ccc(CNc2nc3cnc(-c4c(C)nc(N)nc4C4CC4)nc3n([C@H](C)C3CCC3)c2=O)nc1 [Example 233]
425 | CC[C@@H](C)n1c(=O)c(NCc2ccc(S(N)(=O)=O)cn2)nc2cnc(-c3c(C)ncnc3C3CC3)nc21 [Example 235]
185 | CC[C@@H](C)n1c(=O)c(NCc2ccc(S(N)(=O)=O)cn2)nc2cnc(-c3c(OC)ncnc3C3CC3)nc21 [Example 236]
205 | CNS(=O)(=O)c1ccc(CNc2nc3cnc(-c4c(OC)ncnc4C4CC4)nc3n(C3CCC3)c2=O)nc1 [Example 239]
310 | COc1ncnc(C2CC2)c1-c1ncc2nc(NCc3ccc(S(C)(=O)=O)cn3)c(=O)n(C3CCC3)c2n1 [Example 241]
395 | Cc1ncnc(C2CC2)c1-c1ncc2nc(NCc3ccc(S(C)(=O)=O)cn3)c(=O)n(C3CCC3)c2n1 [Example 242]
385 | Cc1ncnc(C2CC2)c1-c1ncc2nc(NCc3ccc(S(C)(=O)=O)cn3)c(=O)n(CC3CC3)c2n1 [Example 247]
158 | CCc1nc(N)nc(C2CC2)c1-c1ncc2nc(NCc3ccc(S(=O)(=O)C4CC4)cn3)c(=O)n([C@@H](C)C3CC3)c2n1 [Example 251]
325 | CCS(=O)(=O)c1ccc(CNc2nc3cnc(-c4c(C)ncnc4C4CC4)nc3n(CC(C)C)c2=O)nc1 [Example 252]
455 | Cc1ncnc(C2CC2)c1-c1ncc2nc(NCc3ccc(S(N)(=O)=O)cn3)c(=O)n(CC(C)C)c2n1 [Example 254]
285 | COc1ncnc(C2CC2)c1-c1ncc2nc(NCc3ccc(S(N)(=O)=O)cn3)c(=O)n(CC(C)C)c2n1 [Example 255]

Further lines, the compound ahead of its results:

Structure (SMILES) | IC50 [nM]
Cc1ncnc(C2CC2)c1-c1ncc2nc(NCc3ccc(C(=O)O)cc3)c(=O)n([C@@H](C)C3CC3)c2n1 [Example 200] | 855
CCS(=O)(=O)N[C@H]1C[C@H](CNc2nc3cnc(-c4c(C)ncnc4C4CC4)nc3n([C@@H](C)C3CC3)c2=O)C1 [Example 202] | 455
CCc1ncnc(C2CC2)c1-c1ncc2nc(NCc3ccc(S(C)(=N)=O)cc3)c(=O)n([C@@H](C)C3CC3)c2n1 (some centres unmarked) [Example 210] | 150
CCS(=O)(=O)N1CC[C@@H](CNc2nc3cnc(-c4c(C)ncnc4C4CC4)nc3n([C@@H](C)C3CC3)c2=O)C1 [Example 211] | 225
Cc1ncnc(C2CC2)c1-c1ncc2nc(NCc3ccc4c(c3)CCS4(=O)=O)c(=O)n([C@@H](C)C3CC3)c2n1 [Example 212] | 120
COC(=O)c1ccc(CNc2nc3cnc(-c4c(C)ncnc4C4CC4)nc3n([C@@H](C)C3CC3)c2=O)cc1 [Example 216] | 1380
CCS(=O)(=O)c1ccc(CNc2nc3cnc(-c4c(C)nc(N)nc4C4CC4)nc3n([C@@H](C)C3CC3)c2=O)nc1 [Example 217] | 160
CC[C@@H](C)n1c(=O)c(NCc2ccc(S(=O)(=O)CC)nc2)nc2cnc(-c3c(C4CC4)ncnc3C3CC3)nc21 [Example 224] | 120
CO[C@H]1CCC[C@@H]1n1c(=O)c(NCc2ccc(S(C)(=O)=O)cc2)nc2cnc(-c3c(C)ncnc3C3CC3)nc21 [Example 229] | 530
